Series [1] has as its system maximal electroshock-induced seizures. The series is described as follows: Maximal electroshock-induced seizure (MES) test in mice. The class given is in vivo, mouse. The following applies: for responders at 300 mg/kg / ED50: Mus musculus, ip; for responders at 300 mg/kg: read-out: percent of animals protected against MES-induced seizures; for anticonvulsant activity (in words): MES test; for ED50: read-out: ED50 ± S.E. (MES test); for PI (TD50/ED50): protective index; for onset of action: significant protection as early as 15 min after parenteral administration. As to the method: Additionally, all efforts were made to minimize animal suffering and to use only the number of animals necessary to produce reliable scientific data.
In the initial stage of the study, groups of eight mice were supplied with the compounds (administered intraperitoneally) in a dose of 300 mg/kg and then exposed to electrical impulse at fixed intervals (15, 30, 60, 120 min).
Each mouse was used only once.
Fresh drug solutions were prepared on each day of experimentation and administered at 15, 30, 60 and 120 min. before the initiation of maximal electroconvulsions. Electroconvulsions were produced by a current (0.2 s stimulus duration; 500 V, 50 Hz, fixed current intensity of 25 mA) delivered via ear-clip electrodes by a Rodent Shocker generator (constant-current stimulator Type 221, Hugo Sachs Elektronik, Freiburg, Germany). The criterion for the occurrence of seizure activity was the tonic hind limb extension. The animals were administered with a constant dose of 300 mg/kg of each of the examined compounds and were subjected to MES-induced seizures. […] The animals were administered with different doses of the tested compounds so as to obtain a variable percentage of protection against maximal electroconvulsions, allowing the construction of dose-response relationship lines for each examined compound administered i.p. at various pretreatment times, according to Litchfield and Wilcoxon. Each ED50 value represents the dose of the studied compounds that is required to protect 50% of the animals tested against MES-induced seizures.
(In general: Protection in the maximal electroshock model is a classic sign of anticonvulsant action.)

Where [2] appears, read: 300 mg/kg i.p., pretreatment time 15 min, mice.
Setting [3] is: 300 mg/kg i.p., pretreatment time 30 min, mice.
[4] abbreviates: 300 mg/kg i.p., pretreatment time 60 min, mice.
Where [5] appears, read: 300 mg/kg i.p., pretreatment time 120 min, mice.
Where [6] appears, read: 0.25 h, 300 mg/kg i.p., pretreatment time 15 min, mice.
Setting [7] is: 0.5 h, 300 mg/kg i.p., pretreatment time 30 min, mice.
The mark [8] stands for this setting: 1 h, 300 mg/kg i.p., pretreatment time 60 min, mice.
The mark [9] stands for this setting: 2 h, 300 mg/kg i.p., pretreatment time 120 min, mice.
Setting [10] is: pretreatment time 120 min, mice.
[11] abbreviates: chimney TD50 / MES ED50, pretreatment time 15 min.
Setting [12] is: chimney TD50 / MES ED50, pretreatment time 30 min.

Read-outs that look alike come from different tables or passages of the source.

As for `Fc1cccc(-n2c(-c3cccc(Cl)c3)n[nH]c2=S)c1` [Compound 2a, 5-(3-Chlorophenyl)-4-(3-fluorophenyl)-2,4-dihydro-3H-1,2,4-triazole-3-thione], the melting point (as a rule, the temperature of the solid-liquid transition) is 221 to 222 °C. Also, in series [1] (setting [2]), the “p/t, number of animals protected against MES-induced seizures / number tested” value is 0/8. Besides, the “p/t, number of animals protected against MES-induced seizures / number tested” value in series [1] (setting [3]) is listed as 0/8. Further, in series [1] (setting [4]), the “p/t, number of animals protected against MES-induced seizures / number tested” value is 0/8. Besides, in series [1] (setting [5]), the “p/t, number of animals protected against MES-induced seizures / number tested” value is given as 0/8. Besides, the responders at 300 mg/kg in series [1] (setting [6]) was 0%. The responders at 300 mg/kg in series [1] (setting [7]) amounted to 0%. In series [1] (setting [8]), the responders at 300 mg/kg is 0%. For the same compound, the responders at 300 mg/kg in series [1] (setting [9]) is 0%.
With `Fc1ccc(-n2c(-c3cccc(Cl)c3)n[nH]c2=S)cc1` [Compound 3a, 5-(3-Chlorophenyl)-4-(4-fluorophenyl)-2,4-dihydro-3H-1,2,4-triazole-3-thione], the “acute adverse effects at the screening dose” value in series [1] (300 mg/kg i.p., mice, protective effect in MES could not be established) is “acute adverse effects”. Also, in series [1] (mice), the “anticonvulsant activity (in words)” value is on record as “most potent activity”. Further, the median effective dose (ED50) – broadly, the dose that gives a 50% effect, or the effect in half of the subjects – in series [1] (pretreatment time 15 min, mice) is 35.2 ± 5.3 mg/kg; in series [1] (pretreatment time 30 min, mice), 93.6 ± 9.4 mg/kg; in series [1] (pretreatment time 60 min, mice) it was above 200 mg/kg; in series [1] (setting [10]), above 200 mg/kg. Also, the “time to peak of the anticonvulsant action” value in series [1] (after i.p. administration, MES, mice) is reported as 15 min. In addition, the “anticonvulsant activity at decreased doses” value in series [1] (doses lowered to those not inducing neurotoxic effects, MES, mice) is given as “retained its anticonvulsant activity”. The “anticonvulsant activity relative to valproate” value in series [1] (from ED50 values, MES) is “approximately five and a half times higher than that of valproate”. Further, the “PI (TD50/ED50)” value in series [1] (setting [11]) amounted to 3.9; in series [1] (setting [12]), 1.6. In series [1] (MES, mice), the onset of action result was “quick onset of action”.
For the compound `S=c1[nH]nc(-c2cccc(Cl)c2)n1-c1ccc(Cl)cc1` [Compound 4a, 4-(4-Chlorophenyl)-5-(3-chlorophenyl)-2,4-dihydro-3H-1,2,4-triazole-3-thione], the “p/t, number of animals protected against MES-induced seizures / number tested” value is reported as 8/8 in series [1] (setting [2]), 8/8 in series [1] (setting [3]), 7/8 in series [1] (setting [4]) and 7/8 in series [1] (setting [5]). Besides, the responders at 300 mg/kg turned out to be 100% in series [1] (setting [6]), 100% in series [1] (setting [7]), 87.5% in series [1] (setting [8]) and 87.5% in series [1] (setting [9]). The ED50 in series [1] (pretreatment time 15 min, mice) stood at 90.1 ± 15.7 mg/kg; in series [1] (pretreatment time 30 min, mice), 135 ± 19.8 mg/kg; in series [1] (pretreatment time 60 min, mice), 171 ± 21.4 mg/kg; in series [1] (setting [10]), 184 ± 28 mg/kg. For the same compound, the “PI (TD50/ED50)” value in series [1] (setting [11]) is given as 3.9; in series [1] (setting [12]), 2.7; in series [1] (chimney TD50 / MES ED50, pretreatment time 60 min), 2.1; in series [1] (chimney TD50 / MES ED50, pretreatment time 120 min) it was 2.0. Also, the onset of action entry in series [1] (MES, mice) is “quick onset of action”.
With `S=c1[nH]nc(-c2cccc(Cl)c2)n1-c1ccc(I)cc1` [Compound 7a, 5-(3-Chlorophenyl)-4-(4-iodophenyl)-2,4-dihydro-3H-1,2,4-triazole-3-thione], the “p/t, number of animals protected against MES-induced seizures / number tested” value in series [1] (setting [2]), in series [1] (setting [3]), in series [1] (setting [4]) and in series [1] (setting [5]) was 0/8 in each case. Further, in series [1] (mice), the “anticonvulsant activity (in words)” value was “inactive”. The responders at 300 mg/kg in series [1] (setting [6]), in series [1] (setting [7]), in series [1] (setting [8]) and in series [1] (setting [9]) was 0% each time.
Compound `Cc1ccccc1-n1c(-c2cccc(Cl)c2)n[nH]c1=S` [Compound 8a, 5-(3-Chlorophenyl)-4-(2-methylphenyl)-2,4-dihydro-3H-1,2,4-triazole-3-thione] registered a melting point of 186 to 188 °C. Also, the “p/t, number of animals protected against MES-induced seizures / number tested” value in series [1] (setting [2]) is recorded as 0/8. Also, the “p/t, number of animals protected against MES-induced seizures / number tested” value in series [1] (setting [3]) is reported as 0/8. In addition, the “p/t, number of animals protected against MES-induced seizures / number tested” value in series [1] (setting [4]) was 0/8. Further, the “p/t, number of animals protected against MES-induced seizures / number tested” value in series [1] (setting [5]) is recorded as 0/8. The responders at 300 mg/kg in series [1] (setting [6]) came to 0%. In series [1] (setting [7]), the responders at 300 mg/kg worked out at 0%. The responders at 300 mg/kg in series [1] (setting [8]) was 0%. In addition, in series [1] (setting [9]), the responders at 300 mg/kg stood at 0%.
`Cc1cccc(-n2c(-c3cccc(Cl)c3)n[nH]c2=S)c1` [Compound 9a, 5-(3-Chlorophenyl)-4-(3-methylphenyl)-2,4-dihydro-3H-1,2,4-triazole-3-thione] displayed a melting point of 200 to 201 °C. Also, in series [1] (setting [2]), the “p/t, number of animals protected against MES-induced seizures / number tested” value is 0/8. In addition, in series [1] (setting [3]), the “p/t, number of animals protected against MES-induced seizures / number tested” value is recorded as 0/8. Also, the “p/t, number of animals protected against MES-induced seizures / number tested” value in series [1] (setting [4]) is listed as 0/8. Besides, the “p/t, number of animals protected against MES-induced seizures / number tested” value in series [1] (setting [5]) is reported as 1/8. For the same compound, the responders at 300 mg/kg in series [1] (setting [6]) stood at 0%. Also, the responders at 300 mg/kg in series [1] (setting [7]) was determined as 0%. Besides, in series [1] (setting [8]), the responders at 300 mg/kg was found to be 0%. Besides, the responders at 300 mg/kg in series [1] (setting [9]) is 12.5%.
For the compound `S=c1n(CN2CCOCC2)nc(-c2cccc(Cl)c2)n1-c1ccc(Br)cc1` [Compound 19a, 4-(4-Bromophenyl)-5-(3-chlorophenyl)-2-(morpholin-4-ylmethyl)-2,4-dihydro-3H-1,2,4-triazole-3-thione], the “p/t, number of animals protected against MES-induced seizures / number tested” value in series [1] (setting [2]), in series [1] (setting [3]), in series [1] (setting [4]) and in series [1] (setting [5]) was 0/8 in each case. In addition, the responders at 300 mg/kg in series [1] (setting [6]), in series [1] (setting [7]), in series [1] (setting [8]) and in series [1] (setting [9]) was 0% in each case.
For `S=c1n(CN2CCN(c3ccccc3)CC2)nc(-c2cccc(Cl)c2)n1-c1ccc(Br)cc1` [Compound 20a, 4-(4-Bromophenyl)-5-(3-chlorophenyl)-2-[(4-phenylpiperazin-1-yl)methyl]-2,4-dihydro-3H-1,2,4-triazole-3-thione], the “p/t, number of animals protected against MES-induced seizures / number tested” value in series [1] (setting [2]), in series [1] (setting [3]), in series [1] (setting [4]) and in series [1] (setting [5]) was 0/8 each time. The responders at 300 mg/kg in series [1] (setting [6]), in series [1] (setting [7]), in series [1] (setting [8]) and in series [1] (setting [9]) was 0% in each case.
As to `Fc1ccc(N2CCN(Cn3nc(-c4cccc(Cl)c4)n(-c4ccc(Br)cc4)c3=S)CC2)cc1` [Compound 21a, 4-(4-Bromophenyl)-5-(3-chlorophenyl)-2-{[4-(4-fluorophenyl)piperazin-1-yl]methyl}-2,4-dihydro-3H-1,2,4-triazole-3-thione], the “p/t, number of animals protected against MES-induced seizures / number tested” value in series [1] (setting [2]), in series [1] (setting [3]), in series [1] (setting [4]) and in series [1] (setting [5]) was 0/8 in each case. In addition, the responders at 300 mg/kg in series [1] (setting [6]), in series [1] (setting [7]), in series [1] (setting [8]) and in series [1] (setting [9]) was 0% in each case.
`S=c1n(CN2CCOCC2)nc(-c2ccc(Cl)cc2)n1-c1ccc(Br)cc1` [Compound 28a, 4-(4-Bromophenyl)-5-(4-chlorophenyl)-2-(morpholin-4-ylmethyl)-2,4-dihydro-3H-1,2,4-triazole-3-thione]: the “p/t, number of animals protected against MES-induced seizures / number tested” value in series [1] (setting [2]), in series [1] (setting [3]), in series [1] (setting [4]) and in series [1] (setting [5]) was 0/8 throughout. The responders at 300 mg/kg in series [1] (setting [6]), in series [1] (setting [7]), in series [1] (setting [8]) and in series [1] (setting [9]) was 0% in each case.

(Values after publication PMC6271529, “Studies on the Anticonvulsant Activity and Influence on GABA-ergic Neurotransmission of 1,2,4-Triazole-3-thione-Based Compounds” (Molecules, 2014).)
